Results reported in patent US8735538B1, “Use of methanobactin” (priority 2006, dated 2014).
Read-outs that look alike come from different tables or passages of the source.

How the values were obtained:
[1] = ITC, metal binding to mb: Ag(I); details: Ag(I) column
Description: (§1) FIG. 14. Binding isotherm of 3.2 mM HgCl2 (A), HAuCl4 (B), AgNO3 (C) NiCl2 (D), ZnCl2 (E) or FeCl3 (F) into 400 μM mb (cell) aqueous solution at 25° C. Binding isotherm of 1.6 mM HAuCl4 (B). The curve fittings for two-site binding algorithm were used.
(§2) FIG. 15. Binding isotherm of 3.2 mM CdCl2 (A), CoCl2(B), FeCl3 (C), or MnCl2(D) into […] mb aqueous solution at 25° C. Curve fittings for one-site binding algorithm (B, D) or two-site binding algorithm (A, C) were used.
(§3) ITC was performed with following modifications from the previously described procedure (Choi et al., 2006). First, concentrations of the titrant and cell solutions were raised to 3.2 mM and 0.4 mM, respectively. Second, the interval between titrant injections were decreased to 600 s and the stirring rate decreased to 380 rpm.

[2] = ITC, metal binding to mb: Au(III); details: column headed Au(II)
Description: as §1, §2, §3

[3] = ITC, metal binding to mb: Hg(II); details: Hg(II) column
Description: as §1, §2, §3

[4] = ITC, metal binding to mb: Pb(II); details: Pb(II) column, one-site binding model
Description: as §1, §2, §3

[5] = ITC, metal binding to mb: Cd(II); details: Cd(II) column
Description: as §1, §2, §3

[6] = ITC, metal binding to mb: Co(II); details: Co(II) column, one-site fit, 25° C.
Description: as §1, §2, §3

[7] = ITC, metal binding to mb: Fe(III); details: Fe(III) column
Description: as §1, §2, §3

[8] = ITC, metal binding to mb: Mn(II); details: Mn(II) column, one-site fit, 25° C.
Description: as §1, §2, §3

[9] = ITC, metal binding to mb: Ni(II); details: Ni(II) column
Description: as §1, §2, §3

[10] = ITC, metal binding to mb: Zn(II); details: Zn(II) column
Description: as §1, §2, §3

[11] = Initial screening by UV-visible absorption spectroscopy: Ag(I); type: binding; details: in the absence of Cu(II) or Cu(I)
Description: (§4) Metal titration experiments were determined by addition of 100 μM, 1 mM, or 10 mM solutions of AgNO3, HAuCl4, CdCl2, CoCl2, CrO3, CuSO4, FeCl3, HgCl2, MgCl2, MnCl2, NiCl2, Pb(NO3)2, UO2(NO3)2, or ZnSO4 to 50 μM methanobactin dissolved in H2O, pH 6.8 as previously described for Cu(II) or Cu(I) titrations (Choi et al., 2006) unless otherwise stated. Glassware was soaked in 0.1 N HNO3 for 12 hours then rinsed with milliQ H2O. For the metal replacement experiments, 50 μM aqueous mb solutions were preloaded with equimolar of AgNO3, HAuCl4, CaCl2, CdCl2, CoCl2, CrO3, CuSO4, FeCl3, HgCl2, MgCl2, MnCl2, NiCl2, Pb(NO3)2, UO2(NO3)2, or ZnSO4, incubated for 10 minutes followed by the addition of equimolar CuSO4 then monitored via UV-visible absorption spectroscopy every 30 seconds for 0.5-120 minutes. Between scans the samples were stored in the dark to avoid photodegradation (Choi et al., 2005).
(§5) UV-visible absorption, florescence spectra, circular dichroism (CD), and metal determinations via inductively coupled plasma atomic emission-mass spectroscopy (ICP-MS) were determined as previously described (Choi et al., 2003; Choi et al., 2006). In contrast to a previous report (Choi et al., 2006), the base line was used as a reference point of 0 instead of isosbestic point e for the comparison of Δεs.

[12] = Initial screening by UV-visible absorption spectroscopy: Au(III); type: binding; details: in the absence of Cu(II) or Cu(I)
Description: as §4, §5

[13] = Initial screening by UV-visible absorption spectroscopy: Cd(II); type: binding; details: in the absence of Cu(II) or Cu(I)
Description: as §4, §5

[14] = Initial screening by UV-visible absorption spectroscopy: Co(II); type: binding; details: in the absence of Cu(II) or Cu(I)
Description: as §4, §5

[15] = Initial screening by UV-visible absorption spectroscopy: Fe(III); type: binding; details: in the absence of Cu(II) or Cu(I)
Description: as §4, §5

[16] = Initial screening by UV-visible absorption spectroscopy: Hg(II); type: binding; details: in the absence of Cu(II) or Cu(I)
Description: as §4, §5

[17] = Initial screening by UV-visible absorption spectroscopy: Mn(II); type: binding; details: in the absence of Cu(II) or Cu(I)
Description: as §4, §5

[18] = Initial screening by UV-visible absorption spectroscopy: Ni(II); type: binding; details: in the absence of Cu(II) or Cu(I)
Description: as §4, §5

[19] = Initial screening by UV-visible absorption spectroscopy: Pb(II); type: binding; details: in the absence of Cu(II) or Cu(I)
Description: as §4, §5

[20] = Initial screening by UV-visible absorption spectroscopy: U(VI); type: binding; details: in the absence of Cu(II) or Cu(I)
Description: as §4, §5

[21] = Initial screening by UV-visible absorption spectroscopy: Zn(II); type: binding; details: in the absence of Cu(II) or Cu(I)
Description: as §4, §5

[22] = Initial screening by UV-visible absorption spectroscopy: Ba(II); type: binding; details: in the absence of Cu(II) or Cu(I)
[23] = Initial screening by UV-visible absorption spectroscopy: La(III); type: binding; details: in the absence of Cu(II) or Cu(I)
[24] = Initial screening by UV-visible absorption spectroscopy: Mg(II); type: binding; details: in the absence of Cu(II) or Cu(I)
Description: as §4, §5

[25] = Initial screening by UV-visible absorption spectroscopy: Sr(II); type: binding; details: in the absence of Cu(II) or Cu(I)
[26] = XPS, oxidation state of metal bound to mb: Au(III)
Excerpt: FIG. 11. (A) Gold X-ray photoelectric spectra of mb at gold to mb molar ratios between 0.05 and 10 Au per mb. (B) Corrected signal from Au(0) (◯) and Au(III) (●) at different gold:mb molar ratios.
(§6) XPS was preformed on a model Phoibos-150 hemispherical analyzer (SPECS Scientific Instruments, Sarasota, Fla.) or on a model 5600ci spectrophotometer (Perkin-Elmer Inc., Eden Prairie, Minn.) as previously described (Choi et al., 2006).

[27] = XPS, oxidation state of metal bound to mb: Ni(II)
Excerpt: as §6

[28] = Cu(II) column, cited from earlier work
[29] = first site, two-site fit, 25° C.

## methanobactin [mb]
[1]; [29]
  K1: 2.6 ± 0.4 × 10^7 M^−1
[1]; second site
  K1: 4.7 ± 0.45 × 10^4 M^−1
[2]; [29]
  K1: 1.0 ± 0.5 × 10^5 M^−1
[2]; second site
  K1: 1.8 ± 0.2 × 10^5 M^−1
[3]; [29]
  K1: 9.9 ± 2.9 × 10^6 M^−1
[3]; second site
  K1: 89.9 ± 0.01 × 10^4 M^−1
[4]
  K1: 6.84 ± 0.4 × 10^5 M^−1
[5]; [29]
  K1: 1.3 ± 0.8 × 10^6 M^−1
[5]; second site
  K1: 1.1 ± 0.6 × 10^7 M^−1
[6]
  K1: 1.1 ± 0.2 × 10^6 M^−1
[7]; [29]
  K1: 9.7 ± 0.6 × 10^5 M^−1
[7]; second site
  K1: 1.7 ± 0.7 x10^5 M^−1
[8]
  K1: 7.7 ± 1.8 × 10^5 M^−1
[9]; [29]
  K1: 4.9 ± 0.9 × 10^5 M^−1
[9]; second site
  K1: 1.17 ± 0.5 × 10^7 M^−1
[10]; [29]
  K1: 4.5 ± 1.4 × 10^6 M^−1
[10]; second site
  K1: 1.8 ± 0.1 × 10^4 M^−1
[11]
  binding of Ag(I) by mb: will bind
[12]
  binding of Au(III) by mb: will bind
[13]
  binding of Cd(II) by mb: will bind
[14]
  binding of Co(II) by mb: will bind
[15]
  binding of Fe(III) by mb: will bind
[16]
  binding of Hg(II) by mb: will bind
[17]
  binding of Mn(II) by mb: will bind
[18]
  binding of Ni(II) by mb: will bind
[19]
  binding of Pb(II) by mb: will bind
[20]
  binding of U(VI) by mb: will bind
[21]
  binding of Zn(II) by mb: will bind
[22]
  binding of Ba(II) by mb: not
[23]
  binding of La(III) by mb: not
[24]
  binding of Mg(II) by mb: not
[25]
  binding of Sr(II) by mb: not
[26]
  Au to mb ratio above which Au(III) is detected in reaction mixtures: > 2 Au(III) per mb
[26]; no external reductant
  oxidation state of Au(III) after binding by mb: reduced to Au(0)
[27]
  oxidation state of Ni(II) following binding to mb: did not change
[28]; first site
  K1: 3.3e+34 ± 3e+11 M⁻¹
[28]; second site
  K1: 2.6 ± 0.5 × 10^8 M^−1
